≈ marks a conversion by molar mass, not a printed value. Calls of active or inactive are those of the source. The rule behind the calls is not given here.
How the values were obtained:
Enterococcus faecalis [1] = experiment: Antibacterial activity against vancomycin-resistant Enterococcus faecalis ATCC 700802 assessed as inhibition of bacterial growth incubated for 18 to 24 hrs by broth microdilution method; type: functional; conditions: time 18-24 hrs
Staphylococcus aureus [2] = experiment: Antibacterial activity against methicillin-resistant Staphylococcus aureus clinical isolate 15-3 assessed as inhibition of bacterial growth incubated for 18 to 24 hrs by broth microdilution method; type: functional; conditions: time 18-24 hrs
Staphylococcus aureus [3] = experiment: Bactericidal activity against methicillin-resistant Staphylococcus aureus clinical isolate 15-1 assessed as reduction in log10CFU at 1 to 2 times MIC measured after 24 hrs by time kill kinetics analysis; type: functional, organism-based
Staphylococcus aureus [4] = experiment: Potency index, ratio of vancomycin MIC to test compound MIC for antibacterial activity against methicillin-resistant Staphylococcus aureus clinical isolate 15-7 assessed as inhibition of bacterial growth incubated for 18 to 24 hrs by broth microdilution method; type: functional; conditions: time 18-24 hrs
Staphylococcus aureus [5] = experiment: Antibacterial activity against methicillin-resistant Staphylococcus aureus clinical isolate 15-9 assessed as inhibition of bacterial growth incubated for 18 to 24 hrs by broth microdilution method; type: functional; conditions: time 18-24 hrs
HepG2 = experiment: Cytotoxicity against human HepG2 cells assessed as reduction in cell viability after 72 hrs by sulforhodamine B assay; type: cell-based; conditions: HepG2, 72 h
Enterococcus faecalis [6] = experiment: Antibacterial activity against Enterococcus faecalis clinical isolate 15-1 assessed as inhibition of bacterial growth incubated for 18 to 24 hrs by broth microdilution method; type: functional; conditions: time 18-24 hrs
[7] = test system: Staphylococcus epidermidis; experiment: Antibacterial activity against methicillin-sensitive Staphylococcus epidermidis clinical isolate 15-4 assessed as inhibition of bacterial growth incubated for 18 to 24 hrs by broth microdilution method; type: functional; conditions: time 18-24 hrs
[8] = test system: Staphylococcus epidermidis; experiment: Potency index, ratio of vancomycin MIC to test compound MIC for antibacterial activity against methicillin-sensitive Staphylococcus epidermidis clinical isolate 15-4 assessed as inhibition of bacterial growth incubated for 18 to 24 hrs by broth microdilution method; type: functional; conditions: time 18-24 hrs
Staphylococcus aureus [9] = experiment: Antibacterial activity against methicillin-resistant Staphylococcus aureus clinical isolate 15-1 assessed as reduction in bacterial growth treated for 20 passages; type: functional; conditions: time 24 hrs
Staphylococcus aureus [10] = experiment: Antibacterial activity against methicillin resistant and vancomycin-intermediate sensitive Staphylococcus aureus ATCC 700699 assessed as inhibition of bacterial growth incubated for 18 to 24 hrs by broth microdilution method; type: functional; conditions: time 18-24 hrs
[11] = Half life in Kunming mouse at 10 mg/kg, po measured upto 72 hrs by HPLC analysis; type: ADME, organism-based; conditions: in vivo
[12] = Inhibition of Staphylococcus aureus Gyrase B using linear pBR322 DNA as substrate incubated for 30 mins in presence of ATP by ADP-Glo assay
Staphylococcus aureus [13] = experiment: Potency index, ratio of vancomycin MIC to test compound MIC for antibacterial activity against methicillin resistant and vancomycin-intermediate sensitive Staphylococcus aureus ATCC 700788 assessed as inhibition of bacterial growth incubated for 18 to 24 hrs by broth microdilution method; type: functional; conditions: time 18-24 hrs
Staphylococcus aureus [14] = experiment: Bactericidal activity against methicillin-resistant Staphylococcus aureus clinical isolate 15-1 assessed as reduction in log10CFU at 4 times MIC measured over 24 hrs by time kill kinetics analysis; type: functional
Enterococcus faecalis [15] = experiment: Antibacterial activity against vancomycin-resistant Enterococcus faecalis ATCC 51575 assessed as inhibition of bacterial growth incubated for 18 to 24 hrs by broth microdilution method; type: functional; conditions: time 18-24 hrs
Enterococcus faecium [16] = experiment: Potency index, ratio of vancomycin MIC to test compound MIC for antibacterial activity against Enterococcus faecium clinical isolate 15-2 assessed as inhibition of bacterial growth incubated for 18 to 24 hrs by broth microdilution method; type: functional; conditions: time 18-24 hrs
Staphylococcus aureus [17] = experiment: Antibacterial activity against methicillin-resistant Staphylococcus aureus clinical isolate 15-2 assessed as inhibition of bacterial growth incubated for 18 to 24 hrs by broth microdilution method; type: functional; conditions: time 18-24 hrs
Staphylococcus aureus [18] = experiment: In vivo antibacterial activity against methicillin-resistant Staphylococcus aureus clinical isolate 15-1 infected in Kunming mouse assessed as protection from systemic infection up to 50 mg/kg, po administered twice after bacterial infection; type: functional, organism-based; conditions: dose mg/kg <=50
Staphylococcus aureus [19] = experiment: In vivo antibacterial activity against methicillin resistant Staphylococcus aureus clinical isolate 15-1 infected in kunming mouse assessed as animal survival rate at 1 mg/kg, po administered 6 hrs prior to bacterial infection and at 0 and 6 hrs post infection and measured for 7 days (reference value: 12.5 %); type: functional; conditions: 15-1, po, 168 h, time 7 day
[20] = test system: Staphylococcus epidermidis; experiment: Antibacterial activity against methicillin-resistant Staphylococcus epidermidis clinical isolate 15-3 assessed as inhibition of bacterial growth incubated for 18 to 24 hrs by broth microdilution method; type: functional; conditions: time 18-24 hrs
Staphylococcus aureus [21] = experiment: Antibacterial activity against methicillin resistant and vancomycin-intermediate sensitive Staphylococcus aureus ATCC 700788 assessed as inhibition of bacterial growth incubated for 18 to 24 hrs by broth microdilution method; type: functional; conditions: time 18-24 hrs
[22] = AUCinfinity in Kunming mouse at 10 mg/kg, po by HPLC analysis; type: ADME, organism-based; design: time infinity, route oral, dose 10 mg/kg; conditions: in vivo
[23] = Tmax in Kunming mouse at 10 mg/kg, po measured upto 72 hrs by HPLC analysis; type: ADME, organism-based; conditions: in vivo
[24] = test system: Staphylococcus epidermidis; experiment: Antibacterial activity against methicillin-resistant Staphylococcus epidermidis clinical isolate 15-2 assessed as inhibition of bacterial growth incubated for 18 to 24 hrs by broth microdilution method; type: functional; conditions: time 18-24 hrs
Staphylococcus aureus [25] = experiment: Potency index, ratio of vancomycin MIC to test compound MIC for antibacterial activity against methicillin-resistant Staphylococcus aureus clinical isolate 15-3 assessed as inhibition of bacterial growth incubated for 18 to 24 hrs by broth microdilution method; type: functional; conditions: time 18-24 hrs
[26] = Selectivity index, ratio of IC50 for human HUVEC cells to MIC for methicillin-resistant Staphylococcus aureus; type: toxicity
[27] = Protein binding in mouse plasma at 5 uM incubated for 5 hrs by equilibrium dialysis based LC-MS/MS analysis; type: ADME, cell-free; conditions: read-out: PPB
[28] = test system: Staphylococcus epidermidis; experiment: Potency index, ratio of vancomycin MIC to test compound MIC for antibacterial activity against methicillin-sensitive Staphylococcus epidermidis clinical isolate 15-3 assessed as inhibition of bacterial growth incubated for 18 to 24 hrs by broth microdilution method; type: functional; conditions: time 18-24 hrs
[29] = Cmax in Kunming mouse at 10 mg/kg, po measured upto 72 hrs by HPLC analysis; type: ADME, organism-based; design: route oral, dose 10 mg/kg, time <=72; conditions: in vivo
[30] = Selectivity index, ratio of IC50 for human HepG2 cells to MIC for methicillin-resistant Staphylococcus aureus; type: toxicity
[31] = target: DNA topoisomerase 4 subunit B (Staphylococcus aureus, UniProt P0C1S7); experiment: Inhibition of Staphylococcus aures ParE using pBR322 DNA as substrate in presence of ATP
Chain of DNA topoisomerase 4 subunit B (P0C1S7 whole entry): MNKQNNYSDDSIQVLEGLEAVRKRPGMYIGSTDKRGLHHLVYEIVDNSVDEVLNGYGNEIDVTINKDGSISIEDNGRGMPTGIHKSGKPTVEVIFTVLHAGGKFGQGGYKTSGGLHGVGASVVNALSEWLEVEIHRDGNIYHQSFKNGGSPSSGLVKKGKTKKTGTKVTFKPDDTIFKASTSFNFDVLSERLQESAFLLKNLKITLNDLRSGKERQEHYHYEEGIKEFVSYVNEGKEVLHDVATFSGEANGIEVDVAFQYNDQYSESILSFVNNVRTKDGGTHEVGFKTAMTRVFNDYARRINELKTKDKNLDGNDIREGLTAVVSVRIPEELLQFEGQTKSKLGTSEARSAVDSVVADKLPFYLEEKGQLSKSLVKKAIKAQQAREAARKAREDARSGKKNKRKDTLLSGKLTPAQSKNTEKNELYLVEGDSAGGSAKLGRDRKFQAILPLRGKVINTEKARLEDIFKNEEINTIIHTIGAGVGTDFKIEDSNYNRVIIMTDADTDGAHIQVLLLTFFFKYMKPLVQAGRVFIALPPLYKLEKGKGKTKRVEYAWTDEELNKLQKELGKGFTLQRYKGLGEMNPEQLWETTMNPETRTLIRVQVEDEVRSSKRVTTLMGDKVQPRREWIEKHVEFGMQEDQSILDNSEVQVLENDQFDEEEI

Enterococcus faecium [32] = experiment: Antibacterial activity against Enterococcus faecium clinical isolate 15-2 assessed as inhibition of bacterial growth incubated for 18 to 24 hrs by broth microdilution method; type: functional; conditions: time 18-24 hrs
Staphylococcus aureus [33] = experiment: Bactericidal activity against methicillin-resistant Staphylococcus aureus clinical isolate 15-1 assessed as reduction in log10CFU at 8 times MIC measured over 24 hrs by time kill kinetics analysis; type: functional
Staphylococcus aureus [34] = experiment: Antibacterial activity against methicillin-resistant Staphylococcus aureus clinical isolate 15-8 assessed as inhibition of bacterial growth incubated for 18 to 24 hrs by broth microdilution method; type: functional; conditions: time 18-24 hrs
Enterococcus faecalis [35] = experiment: Potency index, ratio of vancomycin MIC to test compound MIC for antibacterial activity against Enterococcus faecalis clinical isolate 15-2 assessed as inhibition of bacterial growth incubated for 18 to 24 hrs by broth microdilution method; type: functional; conditions: time 18-24 hrs
Staphylococcus aureus [36] = experiment: Potency index, ratio of vancomycin MIC to test compound MIC for antibacterial activity against methicillin-resistant Staphylococcus aureus clinical isolate 15-9 assessed as inhibition of bacterial growth incubated for 18 to 24 hrs by broth microdilution method; type: functional; conditions: time 18-24 hrs

Compound: CCn1c(=O)c(C(=O)Nc2nnc(-c3nccs3)s2)c(O)c2ccccc21
- MIC (Enterococcus faecalis [1]): 0.5 µg/mL (≈ 1.25 µM)
- MIC (Staphylococcus aureus [2]): 0.5 µg/mL (≈ 1.25 µM)
- Activity (Staphylococcus aureus [3]): Active
- Ratio (Staphylococcus aureus [4]): 2
- MIC (Staphylococcus aureus [5]): 0.25 µg/mL (≈ 0.626 µM)
- IC50 (HepG2): 55.3 µM
- MIC (Enterococcus faecalis [6]): 0.5 µg/mL (≈ 1.25 µM)
- MIC [7]: 0.5 µg/mL (≈ 1.25 µM)
- Ratio [8]: 2
- MIC (Staphylococcus aureus [9]): 0.5 µg/mL (≈ 1.25 µM)
- MIC (Staphylococcus aureus [10]): 0.5 µg/mL (≈ 1.25 µM)
- half-life [11]: 2.3 h
- IC50 [12]: 0.15 µM
- Ratio (Staphylococcus aureus [13]): 2
- Activity (Staphylococcus aureus [14]): >3 log10CFU/ml
- MIC (Enterococcus faecalis [15]): 0.5 µg/mL (≈ 1.25 µM)
- Ratio (Enterococcus faecium [16]): 2
- MIC (Staphylococcus aureus [17]): 0.5 µg/mL (≈ 1.25 µM)
- Activity (Staphylococcus aureus [18]): inactive
- survival at 1 mg/kg (Staphylococcus aureus [19]): 37.5%
- MIC [20]: 0.5 µg/mL (≈ 1.25 µM)
- MIC (Staphylococcus aureus [21]): 0.5 µg/mL (≈ 1.25 µM)
- AUC(0-inf) [22]: 2620 ng·h/mL
- Tmax [23]: 1 h
- MIC [24]: 0.5 µg/mL (≈ 1.25 µM)
- Ratio (Staphylococcus aureus [25]): 2
- selectivity ratio [26]: 77.6
- fraction unbound at 5 h, 5 µM [27]: 0.001
- Ratio [28]: 2
- Cmax [29]: 827 ng/mL
- selectivity ratio [30]: 111
- IC50 [31]: > 100 µM
- MIC (Enterococcus faecium [32]): 1 µg/mL (≈ 2.5 µM)
- Activity (Staphylococcus aureus [33]): 3 log10CFU/ml
- MIC (Staphylococcus aureus [34]): 0.5 µg/mL (≈ 1.25 µM)
- Ratio (Enterococcus faecalis [35]): 2
- Ratio (Staphylococcus aureus [36]): 2

— ChEMBL document CHEMBL4680144, “N-thiadiazole-4-hydroxy-2-quinolone-3-carboxamides bearing heteroaromatic rings as novel antibacterial agents: Design, synthesis, biological evaluation and target identification” (Eur J Med Chem, 2020)
